Blank lines part the entries; values can stand above or below the compound they belong to. Calls of active or inactive are those of the source. The calls are words filed in the database; no cut-off is given here.
Key:
[1] = target: T1, Poly [ADP-ribose] polymerase 1 (Homo sapiens, UniProt P09874); test: Inhibition of PARP1 (unknown origin) using histone as substrate incubated for 45 mins by absorbance based analysis
[2] = target: T2, Hepatocyte growth factor receptor (Homo sapiens, UniProt P08581); test: Inhibition of c-Met (unknown origin) by HTRF method
T2 sequence (P08581 whole entry): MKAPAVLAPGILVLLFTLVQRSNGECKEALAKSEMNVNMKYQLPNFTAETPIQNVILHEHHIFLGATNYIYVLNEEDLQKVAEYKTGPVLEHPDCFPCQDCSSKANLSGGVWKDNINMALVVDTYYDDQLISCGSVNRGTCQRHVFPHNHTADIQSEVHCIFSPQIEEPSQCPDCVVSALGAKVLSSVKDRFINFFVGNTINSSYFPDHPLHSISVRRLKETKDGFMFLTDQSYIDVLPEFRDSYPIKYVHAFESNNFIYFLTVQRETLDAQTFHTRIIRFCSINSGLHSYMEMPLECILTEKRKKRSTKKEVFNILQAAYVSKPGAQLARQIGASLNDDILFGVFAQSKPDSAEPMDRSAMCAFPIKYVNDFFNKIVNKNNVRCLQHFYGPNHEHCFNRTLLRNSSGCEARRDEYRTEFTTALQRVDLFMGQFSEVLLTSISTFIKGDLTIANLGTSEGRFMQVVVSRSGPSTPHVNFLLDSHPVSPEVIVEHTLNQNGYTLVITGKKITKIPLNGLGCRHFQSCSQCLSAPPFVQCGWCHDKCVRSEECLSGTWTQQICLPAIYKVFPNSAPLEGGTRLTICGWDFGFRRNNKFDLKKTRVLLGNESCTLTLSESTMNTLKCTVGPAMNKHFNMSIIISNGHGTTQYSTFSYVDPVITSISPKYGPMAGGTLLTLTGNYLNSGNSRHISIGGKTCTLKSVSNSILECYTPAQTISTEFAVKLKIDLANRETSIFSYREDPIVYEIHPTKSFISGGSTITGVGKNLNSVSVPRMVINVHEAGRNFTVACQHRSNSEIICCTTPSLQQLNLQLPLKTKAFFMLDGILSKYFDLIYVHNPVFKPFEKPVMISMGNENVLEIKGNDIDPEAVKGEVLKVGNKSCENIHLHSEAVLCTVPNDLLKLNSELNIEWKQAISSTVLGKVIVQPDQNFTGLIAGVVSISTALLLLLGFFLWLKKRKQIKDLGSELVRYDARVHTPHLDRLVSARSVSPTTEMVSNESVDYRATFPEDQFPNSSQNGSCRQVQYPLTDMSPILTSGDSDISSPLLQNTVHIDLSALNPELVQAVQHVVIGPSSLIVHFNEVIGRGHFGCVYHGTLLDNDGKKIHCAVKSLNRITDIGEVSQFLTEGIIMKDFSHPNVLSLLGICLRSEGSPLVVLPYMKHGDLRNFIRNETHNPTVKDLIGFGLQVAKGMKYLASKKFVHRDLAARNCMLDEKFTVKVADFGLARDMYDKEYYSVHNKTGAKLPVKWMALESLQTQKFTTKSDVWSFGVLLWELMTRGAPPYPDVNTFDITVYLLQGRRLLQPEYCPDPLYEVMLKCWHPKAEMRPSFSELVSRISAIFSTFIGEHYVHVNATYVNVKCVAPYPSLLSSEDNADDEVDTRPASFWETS

[3] = tested on: MDA-MB-231; test: Antiproliferative activity against human MDA-MB-231 cells harboring wild type BRCA and c-Met amplification assessed as inhibition of cell growth incubated for 7 days by MTT assay; type: functional, cell-based; details: MDA-MB-231, 168 h
[4] = target: T2, Hepatocyte growth factor receptor; test: Inhibition of c-Met (unknown origin) at 100 nM by HTRF method relative to control
[5] = tested on: MDA-MB-231; test: Effect on homologous recombination in human MDA-MB-231 cells assessed as reduction in Rad51 protein level by measuring disruption of BRCA1-BRCA2-Rad51 complex formation at 0.5 uM incubated for 72 hrs by Western blot analysis; type: functional, cell-based
[6] = tested on: MDA-MB-231; test: Effect on PARP1 […] in human MDA-MB-231 cells with H2O2-induced oxidative stress at 0.5 uM by RT-qPCR analysis; type: functional, cell-based
[7] = tested on: MDA-MB-231; test: Effect on BRCA2 mRNA level in human MDA-MB-231 cells at 0.5 uM by RT-qPCR analysis; type: functional, cell-based
[8] = tested on: Olaparib-resistant HCT116; test: Antitumor activity against human Olaparib-resistant HCT116 cells xenografted in female Balb/c nude mouse assessed as reduction in tumor weight at 5 mg/kg/day, iv qd administered for 21 days; type: functional, organism-based; details: time 21.0 day
[9] = tested on: MDA-MB-231; test: Induction of G2/M phase cell cycle arrest in human MDA-MB-231 cells at 0.5 to 1 uM incubated for 4 days by PI staining based flow cytometry analysis; type: functional; details: dose 0.5-1 µM, time 4.0 day
[10] = tested on: MDA-MB-231; test: Effect on c-MET protein expression in human MDA-MB-231 cells with H2O2-induced oxidative stress at 0.5 uM incubated for 72 hrs by Western blot analysis; type: functional, cell-based
[11] = tested on: MDA-MB-231; test: Effect on PARP1 protein expression in human MDA-MB-231 cells with H2O2-induced oxidative stress at 0.5 uM incubated for 72 hrs by Western blot analysis; type: functional, cell-based
[12] = target: Proto-oncogene tyrosine-protein kinase ROS (Homo sapiens) (UniProt P08922); test: Inhibition of ROS1 (unknown origin) at 1 uM relative to control
[13] = tested on: MDA-MB-231; test: Induction of DNA damage in human MDA-MB-231 cells assessed as increase in gammaH2AX expression at 0.5 to 1 uM incubated for 3 days by immunofluorescence based laser confocal microscopic analysis; type: functional, cell-based; details: dose 0.5-1 µM, time 3.0 day
[14] = tested on: MDA-MB-231; test: Effect on homologous recombination in human MDA-MB-231 cells assessed as reduction in BRCA2-Rad51 complex formation at 0.5 uM incubated for 72 hrs by proximity ligation assay; type: functional, cell-based
[15] = tested on: MDA-MB-231; test: Induction of DNA damage in human MDA-MB-231 cells assessed as increase in tail DNA at 0.5 uM incubated for 72 hrs by comet assay; type: functional, cell-based
[16] = tested on: MDA-MB-231; test: Downregulation of phosphorylated AKT level in human MDA-MB-231 cells with H2O2-induced oxidative stress at 0.5 uM incubated for 72 hrs by Western blot analysis; type: functional, cell-based
[17] = tested on: Olaparib-resistant HCT116; test: Antitumor activity against human Olaparib-resistant HCT116 cells xenografted in female Balb/c nude mouse assessed as reduction in tumor weight at 25 to 100 mg/kg/day, ip qd administered for 21 days; type: functional, organism-based; details: dose 25-100 mg/kg/day, time 21.0 day
[18] = target: T1, Poly [ADP-ribose] polymerase 1; test: Binding affinity to PARP1 in human MDA-MB-231 cells assessed as thermal stabilization at 1 uM at 43 to 55 degreeC incubated for 12 hrs by CETSA; type: cell-based
[19] = tested on: MDA-MB-231; test: Downregulation of phosphorylated AKT level in human MDA-MB-231 cells with H2O2-induced oxidative stress at 0.5 uM […]; type: functional, cell-based
[20] = tested on: MDA-MB-231; test: Downregulation of phosphorylated c-MET protein level in human MDA-MB-231 cells with H2O2-induced oxidative stress at 0.5 uM incubated for 72 hrs by Western blot analysis; type: functional, cell-based
[21] = tested on: MDA-MB-231; test: Induction of DNA damage in human MDA-MB-231 cells assessed as increase in gammaH2AX protein level at 0.5 uM incubated for 72 hrs by Western blot analysis; type: functional, cell-based
[22] = tested on: MDA-MB-231; test: Antitumor activity against human MDA-MB-231 cells xenografted in female Balb/c nude mouse assessed as reduction in tumor weight at 12.5 to 50 mg/kg/day, ip qd administered for 28 days; type: functional, organism-based; details: dose 12.5-50 mg/kg/day, time 28.0 day
[23] = tested on: MDA-MB-231; test: Effect on homologous recombination in human MDA-MB-231 cells assessed as reduction in Rad51 mRNA level by measuring disruption of BRCA1-BRCA2-Rad51 complex formation at 0.5 uM by RT-qPCR analysis; type: functional, cell-based
[24] = tested on: MDA-MB-231; test: Effect on c-MET […] in human MDA-MB-231 cells with H2O2-induced oxidative stress at 0.5 uM by RT-qPCR analysis; type: functional, cell-based
[25] = tested on: MDA-MB-231; test: Effect on BRCA2 protein level in human MDA-MB-231 cells at 0.5 uM incubated for 72 hrs by Western blot analysis; type: functional, cell-based
[26] = tested on: MDA-MB-231; test: Downregulation of PAR protein level in human MDA-MB-231 cells with H2O2-induced oxidative stress at 0.5 uM incubated for 72 hrs by Western blot analysis; type: functional, cell-based
[27] = tested on: MDA-MB-231; test: Downregulation of PAR mRNA level in human MDA-MB-231 cells with H2O2-induced oxidative stress at 0.5 uM by RT-qPCR analysis; type: functional, cell-based
[28] = tested on: MDA-MB-231; test: Antiproliferative activity against human MDA-MB-231 cells assessed as inhibition of cell growth assessed as reduction in colony formation at 0.5 to 1 uM incubated for 14 days by crystal violet staining based microscopic analysis; type: functional; details: dose 0.5-1 µM, time 14.0 day
[29] = tested on: MDA-MB-231; test: Effect on homologous recombination in human MDA-MB-231 cells assessed as reduction in Rad51 nuclear level at 0.5 to 1 uM incubated for 72 hrs by immunofluorescence analysis; type: functional, cell-based; details: dose 0.5-1 µM
[30] = tested on: MDA-MB-231; test: Downregulation of phosphorylated c-MET mRNA level in human MDA-MB-231 cells with H2O2-induced oxidative stress at 0.5 uM by RT-qPCR analysis; type: functional, cell-based
[31] = tested on: MDA-MB-231; test: Antitumor activity against human MDA-MB-231 cells xenografted in female Balb/c nude mouse assessed as induction of DNA damage by measuring increase in gammaH2AX expression in tumor at 50 mg/kg/day, ip qd administered for 28 days by immunohistochemistry analysis; type: functional, organism-based; details: time 28.0 day
[32] = tested on: MDA-MB-231; test: Antitumor activity against human MDA-MB-231 cells xenografted in female Balb/c nude mouse assessed as induction of apoptosis by measuring upregulation of cleaved caspase-3 expression in tumor at 50 mg/kg/day, ip qd administered for 28 days by immunohistochemistry analysis; type: functional, organism-based; details: time 28.0 day
[33] = tested on: MDA-MB-231; test: Effect on homologous recombination in human MDA-MB-231 cells assessed as reduction in BRCA1 mRNA level by measuring disruption of BRCA1-BRCA2-Rad51 complex formation at 0.5 uM by RT-qPCR analysis; type: functional, cell-based
[34] = tested on: MDA-MB-231; test: Induction of DNA damage in human MDA-MB-231 cells assessed as increase in gammaH2AX […] analysis; type: functional, cell-based
[35] = tested on: MDA-MB-231; test: Antitumor activity against human MDA-MB-231 cells xenografted in female Balb/c nude mouse assessed as reduction in Ki67 expression in tumor at 50 mg/kg/day, ip qd administered for 28 days by immunohistochemistry analysis; type: functional, organism-based; details: time 28.0 day
[36] = target: T2, Hepatocyte growth factor receptor; test: Binding affinity to c-Met in human MDA-MB-231 cells assessed as thermal stabilization at 1 uM at 43 to 55 degreeC incubated for 12 hrs by CETSA; type: cell-based
[37] = target: T2, Hepatocyte growth factor receptor; test: Inhibition of c-Met (unknown origin) at 1 uM relative to control
[38] = target: ALK tyrosine kinase receptor (Homo sapiens) (UniProt Q9UM73); test: Inhibition of ALK (unknown origin) at 1 uM relative to control
Sequence of ALK tyrosine kinase receptor (Homo sapiens) (Q9UM73 19-1620 limits assumed): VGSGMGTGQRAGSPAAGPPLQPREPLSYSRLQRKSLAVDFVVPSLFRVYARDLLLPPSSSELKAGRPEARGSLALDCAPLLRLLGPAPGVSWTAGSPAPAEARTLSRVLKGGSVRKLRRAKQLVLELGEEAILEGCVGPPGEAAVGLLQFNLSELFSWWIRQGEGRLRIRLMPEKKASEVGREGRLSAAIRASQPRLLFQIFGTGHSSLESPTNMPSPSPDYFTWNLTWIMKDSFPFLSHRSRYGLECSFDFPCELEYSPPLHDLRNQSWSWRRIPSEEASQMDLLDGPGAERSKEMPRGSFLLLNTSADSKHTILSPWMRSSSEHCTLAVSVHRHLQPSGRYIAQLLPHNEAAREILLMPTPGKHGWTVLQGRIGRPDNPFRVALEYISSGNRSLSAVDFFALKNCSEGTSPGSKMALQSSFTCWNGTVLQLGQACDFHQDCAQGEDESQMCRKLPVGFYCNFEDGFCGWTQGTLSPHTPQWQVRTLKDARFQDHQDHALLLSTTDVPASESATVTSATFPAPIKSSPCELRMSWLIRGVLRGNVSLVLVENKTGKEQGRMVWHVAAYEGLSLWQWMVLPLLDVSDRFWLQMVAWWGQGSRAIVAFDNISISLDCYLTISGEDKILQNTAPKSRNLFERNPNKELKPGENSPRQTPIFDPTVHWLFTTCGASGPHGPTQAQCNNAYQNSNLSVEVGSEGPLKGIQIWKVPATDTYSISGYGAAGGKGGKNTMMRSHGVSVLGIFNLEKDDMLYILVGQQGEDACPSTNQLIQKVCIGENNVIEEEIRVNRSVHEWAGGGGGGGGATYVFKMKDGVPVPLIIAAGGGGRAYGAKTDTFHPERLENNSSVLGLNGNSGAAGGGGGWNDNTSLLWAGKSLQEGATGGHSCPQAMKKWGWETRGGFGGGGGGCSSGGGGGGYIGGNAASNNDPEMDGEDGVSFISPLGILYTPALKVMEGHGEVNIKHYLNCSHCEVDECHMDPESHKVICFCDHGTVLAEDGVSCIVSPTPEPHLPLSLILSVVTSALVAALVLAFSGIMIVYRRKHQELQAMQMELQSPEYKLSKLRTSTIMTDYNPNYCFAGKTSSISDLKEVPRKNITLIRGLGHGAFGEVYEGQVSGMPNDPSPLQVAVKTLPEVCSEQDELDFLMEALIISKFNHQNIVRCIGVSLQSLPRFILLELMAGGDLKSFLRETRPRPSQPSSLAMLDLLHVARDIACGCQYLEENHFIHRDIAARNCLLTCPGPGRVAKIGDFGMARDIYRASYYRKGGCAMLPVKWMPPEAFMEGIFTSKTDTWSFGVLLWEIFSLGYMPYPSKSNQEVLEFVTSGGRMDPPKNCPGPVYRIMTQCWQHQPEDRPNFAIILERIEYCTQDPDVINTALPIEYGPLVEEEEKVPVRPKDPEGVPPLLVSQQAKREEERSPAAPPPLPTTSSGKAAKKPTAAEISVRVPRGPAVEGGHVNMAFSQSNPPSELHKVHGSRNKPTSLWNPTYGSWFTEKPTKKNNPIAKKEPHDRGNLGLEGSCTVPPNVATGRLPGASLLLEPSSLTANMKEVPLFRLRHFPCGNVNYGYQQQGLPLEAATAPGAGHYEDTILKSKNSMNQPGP

[39] = tested on: MDA-MB-231; test: Antitumor activity against human MDA-MB-231 cells xenografted in female Balb/c nude mouse assessed as reduction in BRCA1 expression in tumor at 50 mg/kg/day, ip qd administered for 28 days by immunohistochemistry analysis; type: functional, organism-based; details: time 28.0 day
[40] = tested on: MDA-MB-231; test: Inhibition of PARP1/c-Met protein-protein interaction in H2O2 stimulated human MDA-MB-231 cells at 0.5 uM incubated for 72 hrs by proximity ligation assay; type: cell-based
[41] = tested on: MDA-MB-231; test: Effect on homologous recombination in human MDA-MB-231 cells assessed as reduction in BRCA1 protein level by measuring disruption of BRCA1-BRCA2-Rad51 complex formation at 0.5 uM incubated for 72 hrs by Western blot analysis; type: functional, cell-based

T1 sequence (P09874 whole entry): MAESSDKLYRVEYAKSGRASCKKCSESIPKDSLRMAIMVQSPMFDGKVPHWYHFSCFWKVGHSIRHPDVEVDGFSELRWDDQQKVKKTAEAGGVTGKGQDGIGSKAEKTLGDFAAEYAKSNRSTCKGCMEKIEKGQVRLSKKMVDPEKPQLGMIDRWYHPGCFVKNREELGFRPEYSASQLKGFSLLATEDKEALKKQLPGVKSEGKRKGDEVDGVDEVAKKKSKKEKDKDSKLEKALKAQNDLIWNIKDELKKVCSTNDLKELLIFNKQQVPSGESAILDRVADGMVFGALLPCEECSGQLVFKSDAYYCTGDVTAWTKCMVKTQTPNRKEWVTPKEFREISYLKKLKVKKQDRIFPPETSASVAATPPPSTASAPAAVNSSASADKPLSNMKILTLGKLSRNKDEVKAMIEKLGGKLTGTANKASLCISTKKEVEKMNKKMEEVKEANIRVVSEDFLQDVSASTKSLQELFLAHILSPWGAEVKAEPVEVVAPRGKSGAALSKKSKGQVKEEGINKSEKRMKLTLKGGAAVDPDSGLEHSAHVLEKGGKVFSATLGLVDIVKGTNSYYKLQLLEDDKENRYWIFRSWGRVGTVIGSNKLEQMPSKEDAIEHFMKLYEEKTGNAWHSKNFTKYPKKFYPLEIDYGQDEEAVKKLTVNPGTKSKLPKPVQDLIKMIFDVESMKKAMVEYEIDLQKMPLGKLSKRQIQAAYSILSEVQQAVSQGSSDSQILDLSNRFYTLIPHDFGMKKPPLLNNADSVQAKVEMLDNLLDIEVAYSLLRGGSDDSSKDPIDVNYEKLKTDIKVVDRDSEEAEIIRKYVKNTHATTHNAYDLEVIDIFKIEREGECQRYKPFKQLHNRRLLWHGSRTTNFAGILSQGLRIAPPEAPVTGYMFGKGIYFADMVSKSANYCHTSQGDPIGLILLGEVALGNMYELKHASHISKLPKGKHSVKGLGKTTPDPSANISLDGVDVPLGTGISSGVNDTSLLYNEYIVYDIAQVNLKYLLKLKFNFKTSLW

IC50 [1]: 1.1 nM
IC50 [3]: 5.54 µM
IC50 [2]: 29 nM
Structure (SMILES): CC1CN(c2ccc3c(OCCn4nc(-c5cnn(C)c5)ccc4=O)ccnc3c2)CCN1C(=O)c1cc(Cc2n[nH]c(=O)c3ccccc23)ccc1F (racemic)

IC50 [1]: 2.1 nM
inhibition [4]: < 50%
Structure (SMILES): Cn1cc(-c2ccc(=O)n(CCOc3ccnc4cc(OC5CCN(C(=O)c6cc(Cc7n[nH]c(=O)c8ccccc78)ccc6F)CC5)ccc34)n2)cn1

IC50 [1]: > 1000 nM
inhibition [4]: < 50%
Structure (SMILES): Cn1cc(-c2ccc(=O)n(CCOc3ccnc4cc(N5CCN(C(=O)c6cc(Cc7n[nH]c(=O)c8ccccc78)ccc6F)C(C)(C)C5)ccc34)n2)cn1

IC50 [1]: 91.7 nM
IC50 [2]: 33.1 nM
Structure (SMILES): Cn1cc(-c2ccc(=O)n(CCOc3ccnc4cc(N5CCC(NC(=O)c6cc(Cc7n[nH]c(=O)c8ccccc78)ccc6F)C5)ccc34)n2)cn1 (stereo not given)

The next lines start with the compound.

Structure (SMILES): O=C(c1cc(Cc2n[nH]c(=O)c3ccccc23)ccc1F)N1CCN(c2ccc3c(OCCn4nc(N5CCOCC5)ccc4=O)ccnc3c2)CC1
IC50 [1]: 7.1 nM
IC50 [2]: 51.2 nM

Structure (SMILES): O=C(c1cc(Cc2n[nH]c(=O)c3ccccc23)ccc1F)N1CCN(c2ccc3c(OCCn4nc(-c5cccnc5)ccc4=O)ccnc3c2)CC1
Activity [5]: Active
Activity [6]: inactive
Activity [7]: inactive
Activity [8]: Active
Activity [9]: Active
Activity [10]: inactive
Activity [11]: inactive
inhibition [12]: 63%
Activity [13]: Active
Activity [14]: Active
Activity [15]: Active
Activity [16]: Active
Activity [17]: Active
Activity [18]: Active
Activity [19]: Active
Activity [20]: Active
Activity [21]: Active
Activity [22]: Active
Activity [23]: Active
Activity [24]: inactive
Activity [25]: inactive
Activity [26]: Active
Activity [27]: Active
Activity [28]: Active
Activity [29]: Active
Activity [30]: Active
Activity [31]: Active
Activity [32]: Active
Activity [33]: Active
Activity [34]: Active
Activity [35]: Active
Activity [36]: Active
inhibition [37]: 98.3%
inhibition [38]: 60.3%
Activity [39]: Active
inhibition [40]: Active
Activity [41]: Active

Structure (SMILES): O=C(c1cc(Cc2n[nH]c(=O)c3ccccc23)ccc1F)N1CCN(c2ccc3c(OCCn4ncccc4=O)ccnc3c2)CC1
IC50 [1]: 0.9 nM
inhibition [4]: < 50%

— ChEMBL document CHEMBL5518224, “Rational Design of PARP1/c-Met Dual Inhibitors for Overcoming PARP1 Inhibitor Resistance Induced by c-Met Overexpression” (J Med Chem, 2024)
